Source: ChEMBL document CHEMBL2331295, “Characterization of a selective CaMKII peptide inhibitor” (Eur J Med Chem, 2013)
The source made the active and inactive calls. The rule behind the calls is not given here.

Key:
[1] = target: Calcium/calmodulin-dependent protein kinase type II subunit alpha (Homo sapiens) (UniProt Q9UQM7); assay: Inhibition of GFP-tagged CAMK2alpha (unknown origin) expressed in african green monkey Vero cells using syntide2 as substrate assessed as incorporation of 32P at 5 uM after 30 mins by scintillation counting analysis in presence of [gamma32P]ATP relative to control; type: cell-based
Sequence of Calcium/calmodulin-dependent protein kinase type II subunit alpha (Homo sapiens) (Q9UQM7 whole entry): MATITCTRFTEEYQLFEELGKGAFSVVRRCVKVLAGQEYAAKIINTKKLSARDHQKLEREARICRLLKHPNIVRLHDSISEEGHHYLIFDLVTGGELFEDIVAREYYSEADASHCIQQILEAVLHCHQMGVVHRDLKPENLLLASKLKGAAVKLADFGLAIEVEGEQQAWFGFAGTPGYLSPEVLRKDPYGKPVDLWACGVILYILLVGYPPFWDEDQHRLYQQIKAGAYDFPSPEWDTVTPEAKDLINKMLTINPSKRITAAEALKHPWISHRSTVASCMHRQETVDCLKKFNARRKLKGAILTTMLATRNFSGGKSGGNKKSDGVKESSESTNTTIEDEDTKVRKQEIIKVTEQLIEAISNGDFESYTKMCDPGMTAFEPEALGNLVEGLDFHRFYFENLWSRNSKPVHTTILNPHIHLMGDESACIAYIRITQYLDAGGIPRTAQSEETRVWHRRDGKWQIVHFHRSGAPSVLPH

H9c2 = assay: Inhibition of serum-induced endogenous CAMK2 activation in […] H9C2 cells at 5 uM after 30 mins relative to control; type: cell-based
[2] = target: T1, Calcium/calmodulin-dependent protein kinase type IV (Homo sapiens) (UniProt Q16566); assay: Inhibition of CAMK4 (unknown origin) using gamma peptide as substrate assessed as incorporation of 32P at 5 uM after 30 mins by scintillation counting analysis in presence of [gamma32P]ATP relative to control
T1 sequence (whole entry): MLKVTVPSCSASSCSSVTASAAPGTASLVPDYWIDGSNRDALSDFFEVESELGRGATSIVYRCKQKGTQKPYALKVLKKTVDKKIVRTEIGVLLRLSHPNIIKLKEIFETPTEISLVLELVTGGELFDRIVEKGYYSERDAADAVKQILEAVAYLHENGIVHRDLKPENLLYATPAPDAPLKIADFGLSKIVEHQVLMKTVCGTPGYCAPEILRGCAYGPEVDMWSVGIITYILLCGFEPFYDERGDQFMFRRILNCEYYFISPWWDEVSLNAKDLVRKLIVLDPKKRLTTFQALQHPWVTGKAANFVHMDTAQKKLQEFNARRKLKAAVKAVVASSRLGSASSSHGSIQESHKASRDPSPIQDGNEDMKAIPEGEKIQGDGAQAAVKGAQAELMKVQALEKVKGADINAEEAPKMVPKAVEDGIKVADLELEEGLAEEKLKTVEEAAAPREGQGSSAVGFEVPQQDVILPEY

[3] = target: Calcium/calmodulin-dependent protein kinase type 1 (Homo sapiens) (UniProt Q14012); assay: Inhibition of CAMK1 (unknown origin) using ADR1G as substrate assessed as incorporation of 32P at 5 uM after 30 mins by scintillation counting analysis in presence of [gamma32P]ATP relative to control
Sequence of Calcium/calmodulin-dependent protein kinase type 1 (Homo sapiens) (Q14012 whole entry, looked up): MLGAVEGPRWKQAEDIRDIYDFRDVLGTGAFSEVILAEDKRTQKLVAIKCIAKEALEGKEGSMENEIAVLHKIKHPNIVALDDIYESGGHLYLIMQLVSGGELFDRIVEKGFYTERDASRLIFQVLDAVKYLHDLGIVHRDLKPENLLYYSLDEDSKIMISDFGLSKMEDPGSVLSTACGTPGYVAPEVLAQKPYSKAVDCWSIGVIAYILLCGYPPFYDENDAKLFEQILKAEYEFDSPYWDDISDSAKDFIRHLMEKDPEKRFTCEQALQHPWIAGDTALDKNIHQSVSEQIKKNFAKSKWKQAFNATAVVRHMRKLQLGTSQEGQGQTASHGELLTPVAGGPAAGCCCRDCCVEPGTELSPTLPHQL

Row | inhibition [1] [%] | inhibition [2] | inhibition [3] [%] | Substance | inhibition (H9c2) [%]
1 | < 70 | – | – | H-KRPPKLGQIGRSKRVVI-OH | –
2 | – | inactive | 6.1 | H-RQIKIWFQNRRMKWKKGGCKRPPKLGQIGRAKRVVI-OH | 52
